From US7629310B2, “RhoB as a suppressor of cancer cell growth, cell transformation, and metastasis” (University of South Florida, priority 2000, dated 2009)

Tests used:
[1] = test system: RhoB protein levels; assay: RhoB protein level by Western blotting in NIH3T3 cells; assay type: cell-based; conditions: NIH3T3, 5-FU for 36 hrs (FIG. 2C)
Method: NIH3T3 cells were transiently transfected with various oncogenes or pcDNA3 vector control and cultured for 36 hrs; the pcDNA3-transfected cells were treated by either DMSO or 5-FU for 36 hrs. The cells were then lysed and analyzed for transfection efficiency by Western blotting with anti-HA or anti-Src antibody and for RhoB protein level with anti-RhoB antibody. […] NIH3T3 cells were transiently transfected with various Ras oncogenes or pcDNA3 vector control for 12 hrs, then treated by either DMSO, or 5-FU for another 36 hrs. The whole cell lysates were analyzed for RhoB protein level by Western blotting with anti-RhoB antibody.
Western Blot Analysis. Whole cell lysates were prepared in a lysis buffer containing 20 mM Tris-HCl (pH 7.5), 150 mM NaCl, 1% NP-40, 1 mM phenylmethylsulfonyl fluoride, 1.5 μg each of aprotinin and leupeptin per ml, 10 mM NaF, 10 mM NaPPi, 3 mM sodium vanadate, and 15 mM lycerolphosphate. Lysates were incubated 30 min on ice and centrifuged at 13,000×g for 10 min at 4° C. prior to SDS-PAGE and Western blotting. 50 μg of lysates was loaded for each sample.

[2] = test system: A-549 cells; assay: Cell proliferation, A-549; assay type: cell-based, human; conditions: A-549, 0-96 hours
Method: (§1) Cell Proliferation. Cells were collected and examined for cell number by trypan blue exclusion and hemocytometer counting under microscope at 0 h, 24 h, 48 h, 72 h and 96 h. All the samples were performed in triplicate and the averages of 3 independent experiments were reported.

[3] = test system: NIH3T3 cells; assay: Anoikis assay in transfected NIH3T3 cells; assay type: cell-based; conditions: transfected NIH3T3, poly-HEMA plates, 12 or 24 hours, vs pcDNA3 (FIG. 10B)
Method: (§2) Parental NIH3T3 cells (FIG. 10A) were transiently transfected with pcDNA3 vector, HRas61L, or Akt in the presence or absence of RhoA, RhoB, or pcDNA3 for 36 hours. The cells were then split and cultured in DMEM medium containing 2 μM 5-FU for another 48 hours. The cells were then examined for their susceptibility to 5-FU-induced apoptosis by Annexin V labeling and flow cytometry apoptosis assays as described in the Materials and Methods section. 36 hours after the transfection, a fraction of the cells from FIG. 10A were washed and re-suspended in serum-free medium and seeded into the pre-coated plates and examined for viability at different time points by Annex V and 7-AAD labeling, as shown in FIG. 10B. In FIG. 10B, the bars at each time point (0, 12, 24 hrs), left-to-right, correspond to PCD, H-Ras, AKT, RhoA, RhoB, Akt+RhoA, and Akt+RhoB, respectively. B16-F10 melanoma cells were transiently transfected with pcDNA3 vector, pcDNA-RhoA or pcDNA-RhoB; 20 hours later, the cells were examined for gene delivery by Western Blotting with anti-HA, as shown in FIG. 10C. 5×10^5 of the cells from FIG. 10A were injected into the tail veins of C57/B16 mice. The numbers of metastatic nodules per mouse lung represent an average±standard error from 5 mice per group. […]
Anoikis Assay. […] 24 hrs later the cellular viability was determined by trypan blue exclusion.

[4] = test system: H-Ras/NIH3T3 cells; assay: Anoikis assay in H-Ras-transformed NIH3T3 cells; assay type: cell-based; conditions: H-Ras-transformed NIH3T3, poly-HEMA plates
Method: (§3) Anoikis Assay. Cells were collected by trypsinization, washed twice with PBS, and re-suspended in serum-free medium containing 0.5% BSA; 5.0×10^5 cells were then seeded in triplicates into 60-mm plates pre-coated with poly(2-hydroxyethylmethacrylate) (poly-HEMA, SIGMA) according to the data sheet of the agents. 24 hrs later the cellular viability was determined by trypan blue exclusion.

[5] = test system: A-549 cells; assay: Anoikis assay in A-549 cells; assay type: cell-based, human; conditions: A-549, poly-HEMA plates, 24 hr; control 40%
Method: as §3

[6] = test system: B16-F10 melanoma cells; assay: Melanoma metastasis assay (B16-F10 cells injected into tail vein); assay type: in vivo, mouse; conditions: transfected B16-F10 cells, C57 black mice, after 3 weeks, pcDNA3 control 14.8±1.9
Method: as §2, with “respectively.” for “respectively. B16-F10 melanoma cells were transiently transfected with pcDNA3 vector, pcDNA-RhoA or pcDNA-RhoB; 20 hours later, the cells were examined for gene delivery by Western Blotting with anti-HA, as shown in FIG. 10C. 5×10^5 of the cells from FIG. 10A were injected into the tail veins of C57/B16 mice. The numbers of metastatic nodules per mouse lung represent an average±standard error from 5 mice per group.”
Melanoma Metastasis Assay. pcDNA3, pcDNA-RhoB and pcDNA-RhoA were transfected into B16-F10 cells similarly as described above. The cells were harvested 20 hours post-transfection; 5×10^5 cells from each group were analyzed for transfection efficiency by Western Blotting; another 5×10^5 cells were injected into the tail veins of C57/B16 mice (6 wk, F). The mice were sacrificed at the indicated intervals and the nodules growing in the lungs were counted.

[7] = test system: A-549 cells; assay: Focus/colony formation of A-549 cells in G418 medium; assay type: cell-based, human; conditions: transfected A-549 cells, 3 weeks
Method: Focus Formation Assay. NIH3T3 cells were seeded into 60-mm plates (1×10^6 cell/per plate) one day prior to gene transfection. […] Two days after transfection, the cells were seeded into 60-mm plates at a density of 2.5×10^3/per plate, and maintained in DMEM medium containing 1.5% CBS. The medium was changed every 3 days. 3-4 weeks later the cells were washed once with PBS and once with PBS/methanol (1:1), then washed with fresh anhydrous methanol and covered with crystal violet stain for 1 min at room temperature. Finally, the stain was displaced with water. The focus formation assay for A-549 cells was similarly performed as above except that following the transfection the cells were cultured in DMEM complete medium containing 400 μg/ml of geneticin (G418, […], Inc.). 3 weeks later, the cells were fixed with anhydrous methanol and stained with crystal violet; the plates were photographed. All the samples were performed in triplicate and a representative of 3 independent experiments was reported in the figure(s) and averages±standard deviation reported in the table.

[8] = test system: H-Ras/NIH3T3 cells; assay: Cell proliferation, H-Ras-transformed NIH3T3; assay type: cell-based; conditions: H-Ras-transformed NIH3T3, 0-96 hours
Method: as §1

[9] = test system: NIH3T3 cells; assay: Wound healing migration assay in NIH3T3 cells; assay type: cell-based; conditions: NIH3T3, 24 hours after wounding (FIG. 8D)
Method: Parental NIH3T3 (FIG. 8A) were transiently transfected with pcDNA3 vector control, H-Ras61L, CA-PI3K, or CA-Akt in the presence or absence of RhoA or RhoB or pcDNA3 for 36 hours. The cells were then split and cultured for another 4 weeks. The plates were examined for focus formation by staining. H-Ras/3T3 cells (FIG. 8B) and PANC-1 cells (FIG. 8C) were transiently transfected with pcDNA3 vector control, CA-Akt, or WT-Akt in the presence or absence of RhoA, RhoB, or pcDNA3 for 36 hours. The cells were then split and analyzed for their migration capabilities through collagen type I coated transfilters as described in the Materials and Methods section. NIH3T3 cells (FIGS. 8D and 8E) were transiently transfected with pcDNA3 vector control, H-Ras61L, CA-Akt, or WT-Akt in the presence or absence of RhoA, RhoB, or pcDNA3 for 36 hours. The monolayers were then scratched with a 20 μl pipette tip and micro-photographed at the time points indicated for analyzing their capability to migrate into and fill the wounded area.
The ability of RhoB to inhibit cancer cell migration was further confirmed in a different assay where cells are induced to migrate by physical wounding of cells plated on fibronectin pre-coated plates.

| Compound | induction of RhoB protein levels [1] [fold] | growth rate [2] | cell death induced by lack of attachment (anoikis) [3] | anoikis [4] | cell death on deprivation of substratum attachment (anoikis) [5] | metastatic colonies per lung [6] | number of colonies [7] | growth rate [8] | wound healing [9] |
| --- | --- | --- | --- | --- | --- | --- | --- | --- | --- |
| O=c1[nH]cc(F)c(=O)[nH]1 [5-FU, 5-fluorouracil] | 3 | – | – | – | – | – | – | – | – |
| RhoA: closely related family member sharing 86% sequence identity with RhoB; wild-type, in HA-tagged pcDNA3, transfected as control | – | enhanced the rate of growth | much lower rate of anoikis | slightly protected from anoikis | protected these cells from anoikis | 13±4.5 | 593+/−43 | enhanced the rate of growth | accelerated |
| RhoB: low molecular weight GTPase; wild-type RhoB subcloned into HA-tagged pcDNA3 and ectopically expressed by transfection | – | inhibited the growth rate | significantly higher cell death | enhanced anoikis | 78% | 2±0.7 | 178+/−19 | inhibited the growth rate | inhibited |
